Assays:
[1] = system: SW1116 cells; test: Survival of xenograft-bearing mice; assay type: in vivo, BALB/c nude mice
Protocol: rAAV-Sur-Mut(Cys84Ala) prolonged the survival of mice. (A) Masses were injected in three sites with rAAV-Sur-Mut(Cys84Ala), rAAV-Sur(wt) and rAAV-eGFP at 5×10^10 viral particles/site of injection, or in combination with 5-Fluorouracil for 5 days. Tumor xenografts were collected and tissue sections of formalin-fixed, paraffin-embedded xenograft were TUNEL stained for apoptosis. (B) Survival curve. The experimental conditions were as in (A) Survival was monitored every day, and tumor volume was measured every week after treatment. Definition of death is natural death due to tumor burden or killing due to tumor sizes (diameter) more than 2.5 cm.
Five- to six-week-old female BALB/c nude mice were injected subcutaneously on the flanks with 2×10^6 exponentially growing SW1116 cells. Tumors were allowed to grow to 100˜150 mm^3 (5˜7 mm diameter). For local administration of rAAV, masses were injected in three sites with rAAV-Sur-Mut(Cys84Ala), rAAV-Sur(wt) or rAAV-EGFP at 5×10^10 viral particles/site of injection, or at each of the three site with PBS. Alternatively, mice were i.p. injected with 50 mg/kg 5-fluorouracil daily for 5 days, or a combination of rAAV virus and 5-Fluorouracil. Tumor growth was measured weekly after injection. In other experiments, mice received an injection of uninfected exponentially growing 2×10^6 SW1116 cells. […]

[2] = system: SW1116 cells; test: Intratumoral rAAV gene therapy in colon cancer xenograft model: tumor growth; assay type: in vivo, BALB/c nude mice; details: rAAV 5×10^10 particles/site, 3 sites; 5-FU i.p. 50 mg/kg on each of 5 days
Protocol: rAAV-Sur-Mut(Cys84Ala) inhibited tumor growth. (A) Untreated SW1116 cell were subcutaneously injected into the right flank of athymic female nude mice. Tumors were allowed to grow to approximately 100-150 mm^3 volume. Masses were injected in three sites with rAAV-Sur-Mut(Cys84Ala), rAAV-eGFP or rAAV-Sur(wt) at 5×10^10 viral particles/site of injection, or with PBS. Photographs were taken from representative mice 4 weeks after treatment. (B) Tumor growth was measured every week after injection. Data are the means±SEM of tumor size per mouse. (C) Tissue sections of formalin-fixed, paraffin-embedded xenograft tumors were stained by H&E, immunohistochemical stained for survivin or TUNEL stained for detection of apoptotic cells. Images were representative fields of view from tumors 5 days after treatment. (Original magnification ×200)
Five- to six-week-old female BALB/c nude mice were injected subcutaneously on the flanks with 2×10^6 exponentially growing SW1116 cells. Tumors were allowed to grow to 100˜150 mm^3 (5˜7 mm diameter). For local administration of rAAV, masses were injected in three sites with rAAV-Sur-Mut(Cys84Ala), rAAV-Sur(wt) or rAAV-EGFP at 5×10^10 viral particles/site of injection, or at each of the three site with PBS. Alternatively, mice were i.p. injected with 50 mg/kg 5-fluorouracil daily for 5 days, or a combination of rAAV virus and 5-Fluorouracil. Tumor growth was measured weekly after injection. In other experiments, mice received an injection of uninfected exponentially growing 2×10^6 SW1116 cells. After 7 days, mice were given an injection of same dosage of rAAV virus and 5-FU (3 animals/group). After 5 days, animals were euthanized, and their total tumor burden was excised, fixed and embedded in paraffin blocks for H&E, TUNEL and immunohistochemical staining, or tumors were snap-frozen in liquid nitrogen for CD31 staining.

[3] = system: SW1116 cells; test: Drug-induced apoptosis by FACS analysis (Table 1); assay type: cell-based, Human; details: rAAV 1×10^5 viral particle/cell, or followed by 10 μg/ml 5-fluorouracil for 72 hour; mean ± SEM
Protocol: Cells were collected and fixed in ice-cold 70% ethanol in PBS and stored at −20° C. before use. After re-suspension, cells were washed and incubated with 100 μl of RNase I (1 mg/ml) and 100 μl of propidium iodide (400 μg/ml; Sigma) at 37° C. for 30 min. Samples were analyzed by flow cytometry (Coulter, Luton). The cell-cycle phase distribution was calculated from the resultant DNA histogram using Multicycle AV software (Phoenix Flow Systems, San Diego, Calif.). Cells with subdiploid DNA content were scored as apoptotic.

Question: What does the source list for `O=c1[nH]cc(F)c(=O)[nH]1` [5-FU, 5-fluorouracil]?
Answer: survival (comparison in words) ([1]; mouse, in vivo): survived significantly longer than buffer-treated mice; clinical symptoms ([1]; tumor-bearing mice): developed severe symptoms related to tumor growth; Number of mice with tumor regression [2]: 0/4; Rate of inhibition [2]: 61.2%; Tumor size [2]: 606.3 ± 106.7 mm^3; % Apoptosis [3]: 26.0 ± 3.4%
